Measurements from article PMC3842914, “Meleagrin, a New FabI Inhibitor from Penicillium chryosogenum with at Least One Additional Mode of Action” (PLoS ONE, 2013).
≈ marks a conversion by molar mass, not a printed value. Where two headings read alike, the source gives them in different places.

Experiments:
[1] = MIC against other gram-positive bacteria; assay type: cell-based; details: Staphylococcus aureus
Protocol: (§1) Whole-cell antimicrobial activity was determined by broth microdilution as described previously. The test strains except for S. pneumoniae were grown to mid-log phase in Mueller–Hinton broth and diluted 1,000-fold in the same medium. Cells (10^5/mL) were inoculated into Mueller–Hinton broth and dispensed at 0.2 mL/well into a 96-well microtiter plate. S. pneumoniae was grown in tryptic soy broth supplemented with 5% sheep blood. MICs were determined in triplicate by serial 2-fold dilutions of test compounds. […] Bacterial growth was determined by measuring the absorption at 650 nm by using a microtiter ELISA reader.

S. aureus RN4220 [2] = assay: Inhibition of macromolecular biosynthesis (radiolabeled precursor incorporation) in S. aureus; assay type: cell-based, Staphylococcus aureus; details: drugs at 2 times the MIC
Protocol: (§2) To monitor the effects of compound 1 on lipid, DNA, RNA, protein, and cell wall biosynthesis, its effects on the incorporation of [1-^14C] acetate (50 mCi/mmol), [2-^14C] thymidine (59.8 mCi/mmol), [U-^14C] uridine (539 mCi/mmol), L-[U-^14C] leucine (306 mCi/mmol) or L-[U-^14C] isoleucine (329 mCi/mmol), and N-acetyl-D-[1-^14C] glucosamine (58.1 mCi/mmol) into S. aureus and S. pneumoniae were measured as described previously. S. aureus was exponentially grown to an A650 of 0.2 in Mueller–Hinton broth. S. pneumoniae was grown in tryptic soy broth supplemented with 5% sheep blood. […] An equal volume of DMSO solvent was added to the untreated control. After incubation with the radiolabeled precursors at 37°C for 1 h, followed by centrifugation, the cell pellets were washed twice with PBS buffer. After acetate incorporation, the total cellular lipids were extracted with chloroform-methanol-water. The incorporated radioactivity in the chloroform phase was measured by scintillation counting. For the other precursors, incorporation was terminated by adding 10% (w/v) TCA and cooling on ice for 20 min. The precipitated material was collected on Whatman GF/C glass microfiber filters, washed with TCA and ethanol, dried, and counted using a scintillation counter. The total counts incorporated at 1 h of incubation without inhibitors ranged from >7,000 for [U-^14C] uridine to <13,000 for [1-^14C] acetate. […] In all experiments, known antibacterial agents were included as positive controls.

E. coli EW1b(pBAD-fabK) = assay: Overexpression assay, MIC for fabK-overexpressing E. coli EW1b (pBAD-fabK); assay type: cell-based; details: Escherichia coli
Protocol: as §1
An overexpression assay using S. aureus RN4220, S. aureus RN4220 (pE194), and S. aureus RN4220 (pE194-fabI) was conducted to perform target validation of FabI inhibitors as described previously. Additionally, both fabI- and fabK-overexpressing E. coli were constructed to test a multitarget effect of the compounds. The wild-type fabI gene from the genomic DNA of E. coli W3110 was amplified by PCR by using the primers 5′-[…]-3′ and 5′-[…]-3′. The wild-type fabK gene from the genomic DNA of S. pneumoniae KCTC 5412 was amplified by PCR by using the primers 5′-[…]-3′ and 5′-[…] […]-3′. The resulting products were cloned into the pBAD-TOPO TA expression vector (Invitrogen, Carlsbad, CA, USA) to yield the pBAD-fabI and pBAD-fabK recombinant plasmids, which placed the expression of the genes fabI and fabK, respectively, under the control of the arabinose promoter. Recombinant pBAD-fabI and pBAD-fabK were then introduced into the pump-negative (tolC) E. coli EW1b via electroporation to generate E. coli EW1b (pBAD-fabI) and E. coli EW1b (pBAD-fabK), respectively.

E. coli KCTC 1924 = assay type: cell-based; details: exposure 4× MIC
Protocol: (§3) The frequency of spontaneous resistance was determined for S. aureus RN4220, S. aureus KCTC 1916, and E. coli KCTC 1942. […] The organisms were grown to log-phase by dilution of an overnight culture in fresh media and re-incubation at 35°C until the cultures reached a cell density of approximately 10^9 CFU/mL. […] Inocula were determined by applying 100 μl of 10-fold dilutions on solid media without drug. Colony-forming units were counted after 48 h incubation at 35°C. The ratio of the number of colonies on drug-containing plates to that on control plates was calculated as the in vitro frequency of isolation of CFU.

S. aureus RN4220 [3] = assay type: cell-based, Staphylococcus aureus; details: exposure 4× MIC
Protocol: as §3

S. aureus KCTC 1916 = assay type: cell-based, Staphylococcus aureus; details: exposure 4× MIC
Protocol: as §3

S. pneumoniae KCTC 3932 = assay: Inhibition of macromolecular biosynthesis (radiolabeled precursor incorporation) in S. pneumoniae; assay type: cell-based, Streptococcus pneumoniae; details: drugs at 2 times the MIC
Protocol: as §2

[4] = read-out: MIC E. coli EW1b(pBAD-fabK) (+) Ara
[5] = read-out: MIC E. coli EW1b(pBAD-fabK) (−) Ara

Row | Structure (SMILES) | MIC [1] [µg/mL] | Inhibition of precursor incorporation, [1-14C] Acetate (S. aureus RN4220 [2]) [%] | MIC (E. coli EW1b(pBAD-fabK); [4]) [µg/mL] | MIC (E. coli EW1b(pBAD-fabK); [5]) [µg/mL] | Frequency of resistance (E. coli KCTC 1924) | MIC ([1]; other gram-positive bacteria incl. MRSA and QRSA strains, read-out: MIC) [µg/mL] | Frequency of resistance (S. aureus RN4220 [3]) | Frequency of resistance (S. aureus KCTC 1916) | Inhibition of precursor incorporation, L-[U-14C] Isoleucine (S. aureus RN4220 [2]) [%] | Inhibition of precursor incorporation, N-Acetyl-D-[1-14C] Glucosamine (S. aureus RN4220 [2]) [%] | Inhibition of precursor incorporation, [2-14C] Thymidine (S. aureus RN4220 [2]) [%] | Inhibition of precursor incorporation, [U-14C] Uridine (S. aureus RN4220 [2]) [%] | Inhibition of precursor incorporation, L-[U-14C] Isoleucine (S. pneumoniae KCTC 3932) [%] | Inhibition of precursor incorporation, N-Acetyl-D-[1-14C] Glucosamine (S. pneumoniae KCTC 3932) [%] | Inhibition of precursor incorporation, [1-14C] Acetate (S. pneumoniae KCTC 3932) [%] | Inhibition of precursor incorporation, [2-14C] Thymidine (S. pneumoniae KCTC 3932) [%] | Inhibition of precursor incorporation, [U-14C] Uridine (S. pneumoniae KCTC 3932) [%]
1 | C=CC(C)(C)C12C=C(OC)C(=O)N3/C(=C/c4cnc[nH]4)C(=O)N(C)C31Nc1ccccc12 (stereo not shown) [Compound 6, O,N^14-dimethylglandicolin] | 8 to 16 (≈ 18.5 to 37.1 µM) | – | – | – | – | – | – | – | – | – | – | – | – | – | – | – | –
2 | Oc1cc(Cl)ccc1Oc1ccc(Cl)cc1Cl [Triclosan, reference compound] | – | 87 | > 0.08 | 0.002 (≈ 0.00691 µM) | – | – | – | – | – | – | – | – | – | – | – | – | –
3 | C=CC(C)(C)C12C=C(OC)C(=O)N3/C(=C/c4cnc[nH]4)C(=O)N(C)C31N(OC)c1ccccc12 (stereo not shown) [Compound 5, O,N^14-dimethylmeleagrin] | – | – | 16 (≈ 34.7 µM) | 16 (≈ 34.7 µM) | <6.7×10^−9 | 8 to 16 (≈ 17.3 to 34.7 µM) | <1.62×10^−10 | <1.03×10^−10 | – | – | – | – | – | – | – | – | –
4 | C=CC(C)(C)C12C=C(O)C(=O)N3/C(=C/c4cnc[nH]4)C(=O)NC31N(OC)c1ccccc12 (stereo not shown) [Compound 1, meleagrin] | – | 62 | 32 (≈ 73.8 µM) | 32 (≈ 73.8 µM) | <6.7×10^−9 | – | <1.62×10^−10 | <1.03×10^−10 | 6 | 25 | 13 | 17 | 9 | 3 | 65 | 15 | 2
